Assay results reported in ChEMBL document CHEMBL4340547, “Synthesis and SAR development of quinoline analogs as novel P2X7 receptor antagonists” (Bioorg Med Chem Lett, 2019).

Experiments:
[1] = Intrinsic clearance in human liver microsomes; assay type: ADME, Microsome; conditions: read-out: CLH
P2X purinoceptor 7 [2] = target: T1, P2X purinoceptor 7 (Homo sapiens, UniProt Q99572); assay: Antagonist activity at human P2X7 receptor expressed in HEK293 cells assessed as inhibition of BzATP-induced YO PRO dye uptake preincubated for 20 mins followed by YO PRO dye and BzATP addition measured after 30 mins by fluorescence assay; assay type: cell-based
T1 sequence (Q99572 whole entry): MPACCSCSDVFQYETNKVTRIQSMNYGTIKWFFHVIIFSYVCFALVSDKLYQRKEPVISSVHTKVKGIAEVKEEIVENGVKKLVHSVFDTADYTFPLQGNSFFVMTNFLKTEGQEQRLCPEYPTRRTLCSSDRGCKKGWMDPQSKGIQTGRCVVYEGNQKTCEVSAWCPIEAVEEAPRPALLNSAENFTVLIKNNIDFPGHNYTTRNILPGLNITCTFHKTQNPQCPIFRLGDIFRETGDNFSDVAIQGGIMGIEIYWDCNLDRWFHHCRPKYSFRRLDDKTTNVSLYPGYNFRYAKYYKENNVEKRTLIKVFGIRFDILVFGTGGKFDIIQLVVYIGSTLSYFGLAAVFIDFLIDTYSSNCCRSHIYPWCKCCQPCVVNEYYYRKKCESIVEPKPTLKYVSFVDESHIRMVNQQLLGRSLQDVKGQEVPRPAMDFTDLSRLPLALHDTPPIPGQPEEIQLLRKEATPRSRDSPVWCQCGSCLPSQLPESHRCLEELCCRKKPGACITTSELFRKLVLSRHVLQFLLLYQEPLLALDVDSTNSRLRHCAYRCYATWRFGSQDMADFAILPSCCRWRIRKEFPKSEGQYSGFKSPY

P2X purinoceptor 7 [3] = target: T1, P2X purinoceptor 7; assay: Antagonist activity at P2X7R in LPS-stimulated human THP1 cells assessed as inhibition of BzATP-induced IL-1beta release preincubated for 30 mins followed by BzATP stimulation and measured after 30 mins by sandwich ELISA
[4] = Intrinsic clearance in mouse liver microsomes; assay type: ADME, Microsome; conditions: read-out: CLH
[5] = Intrinsic clearance in rat liver microsomes; assay type: ADME, Microsome; conditions: read-out: CLH
MDR [6] = assay: Apparent permeability across apical to basolateral side in MDCK cells expressing MDR; assay type: ADME, cell-based, Canis lupus familiaris; conditions: dog, MDCK-MDR1
MDR [7] = assay: Efflux ratio of apparent permeability in MDCK cells expressing MDR; assay type: ADME, cell-based, Canis lupus familiaris; conditions: dog, MDCK-MDR1
P2X purinoceptor 7 [8] = target: T2, P2X purinoceptor 7 (Rattus norvegicus, UniProt Q64663); assay: Antagonist activity at rat P2X7 receptor assessed as inhibition of BzATP-induced YO PRO dye uptake preincubated for 20 mins followed by YO PRO dye and BzATP addition measured after 30 mins by fluorescence assay
T2 sequence (Q64663 whole entry): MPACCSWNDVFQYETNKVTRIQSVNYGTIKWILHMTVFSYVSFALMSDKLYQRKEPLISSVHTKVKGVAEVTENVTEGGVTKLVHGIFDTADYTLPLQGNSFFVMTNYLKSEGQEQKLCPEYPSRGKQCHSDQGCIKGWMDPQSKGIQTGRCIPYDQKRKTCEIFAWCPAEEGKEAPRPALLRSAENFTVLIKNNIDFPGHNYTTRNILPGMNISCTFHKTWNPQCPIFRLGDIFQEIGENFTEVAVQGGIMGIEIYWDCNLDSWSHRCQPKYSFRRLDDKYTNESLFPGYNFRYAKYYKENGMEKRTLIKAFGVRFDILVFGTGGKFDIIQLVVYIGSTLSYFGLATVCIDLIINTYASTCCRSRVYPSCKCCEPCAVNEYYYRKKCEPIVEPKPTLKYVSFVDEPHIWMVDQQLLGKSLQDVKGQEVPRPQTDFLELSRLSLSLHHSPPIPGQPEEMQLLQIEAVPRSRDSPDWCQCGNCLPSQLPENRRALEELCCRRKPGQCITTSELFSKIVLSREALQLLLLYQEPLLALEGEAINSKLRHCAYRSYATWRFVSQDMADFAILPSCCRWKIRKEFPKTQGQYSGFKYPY

P2X purinoceptor 7 [9] = target: T3, P2X purinoceptor 7 (Mus musculus, UniProt Q9Z1M0); assay: Antagonist activity at mouse P2X7 receptor assessed as inhibition of BzATP-induced YO PRO dye uptake preincubated for 20 mins followed by YO PRO dye and BzATP addition measured after 30 mins by fluorescence assay
T3 sequence (Q9Z1M0 whole entry): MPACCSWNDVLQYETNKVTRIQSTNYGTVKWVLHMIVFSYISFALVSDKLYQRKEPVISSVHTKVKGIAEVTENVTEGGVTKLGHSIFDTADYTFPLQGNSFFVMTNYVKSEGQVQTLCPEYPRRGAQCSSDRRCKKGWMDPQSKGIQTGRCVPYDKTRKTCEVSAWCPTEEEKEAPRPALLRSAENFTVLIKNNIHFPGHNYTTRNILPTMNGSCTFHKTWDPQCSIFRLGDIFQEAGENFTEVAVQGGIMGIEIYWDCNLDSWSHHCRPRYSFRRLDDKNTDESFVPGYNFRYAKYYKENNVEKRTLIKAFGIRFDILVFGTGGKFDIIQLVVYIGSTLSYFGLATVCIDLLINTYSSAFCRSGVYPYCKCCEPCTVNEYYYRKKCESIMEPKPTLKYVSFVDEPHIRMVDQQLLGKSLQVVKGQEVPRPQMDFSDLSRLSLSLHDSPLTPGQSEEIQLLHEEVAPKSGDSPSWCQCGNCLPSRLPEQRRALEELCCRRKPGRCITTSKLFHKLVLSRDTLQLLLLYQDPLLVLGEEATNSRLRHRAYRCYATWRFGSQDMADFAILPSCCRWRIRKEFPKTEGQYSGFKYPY

Compound	microsomal CLint [1] [µL/min/mg]	IC50 (P2X purinoceptor 7 [2]) [nM]	IC50 (P2X purinoceptor 7 [3]) [nM]	microsomal CLint [4] [µL/min/mg]	microsomal CLint [5] [µL/min/mg]	Papp A→B (MDR [6]) [×10⁻⁶ cm/s]	efflux ratio (MDR [7])	IC50 (P2X purinoceptor 7 [8]) [nM]	IC50 (P2X purinoceptor 7 [9]) [nM]
CN(C)[C@H]1CCN(c2ccc3c(C(=O)NCC4CCC(F)(F)CC4)c(Cl)ccc3n2)C1	80	50	75	24	25	6	6.9	–	–
COCCNc1ccc2c(C(=O)NCC3CCC(F)(F)CC3)c(Cl)ccc2n1	–	89	180	–	–	–	–	–	–
O=C(NCC1CCC(F)(F)CC1)c1c(Cl)ccc2nc(N3CCC(NCCO)C3)ccc12 (stereo not given)	17	10	12	10	10	0.18	114	–	–
O=C(NC[C@]1(O)CCCC(F)(F)C1)c1c(Cl)ccc2nc(N3CC[C@@H](F)C3)ccc12	50	19	36.4	48	31	6.8	8.7	4300	4830
C[C@@H]1CCC[C@@](O)(CNC(=O)c2c(Cl)ccc3nc(N4CC[C@@H](C(C)(C)O)C4)ccc23)C1	75	14	7.4	68	10	1.5	34	130	3690
O=C(NCC1CCCC(F)(F)C1)c1c(Cl)ccc2nc(N3CC[C@@H](F)C3)ccc12 (stereo not given in full)	41	4.9	118	102	102	16.4	1.8	–	2000
COCCOc1ccc2c(C(=O)NCC3CCC(F)(F)CC3)c(Cl)ccc2n1	–	25	140	–	–	–	–	–	–
O=C(NCC1CCC(F)(F)CC1)c1c(Cl)ccc2nc(C3=CCCC3)ccc12	–	36	90	–	–	–	–	–	–
O=C(NCC1CCC(F)(F)CC1)c1c(Cl)ccc2nc(N3CCC(CCO)C3)ccc12 (stereo not given)	32	47	100	23	46	16.5	3.8	–	–
O=C(NCC1CCC(F)(F)CC1)c1c(Cl)ccc2ncccc12	–	230	220	–	–	–	–	–	–
